Drawing on EP4653437A2 (Innovo Therapeutics Inc., priority 2023, dated 2024), this text covers fold induction and IC50 for 23 molecules.

In one test the test system is A549 cells. Description: Measurement of PGE2-increasing activity in A549 cells (IL-1β stimulated, PGE2 quantified in supernatant). The test is classed as cell-based. Conditions: Homo sapiens, 24 h; concentration of 1 µM of each compound; IL-1β treated A549 cells; read-out: Increased PGE2 production in A549 cells. Put shortly: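 A549 cells grown 24 h in F12K with 10% FBS, then switched to serum-free medium with or without IL-1β and compound (0.1% DMSO final). After 24 h at 37 °C, 5% CO2, supernatant PGE2 quantified by immunoassay.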

In a further test the target is T1, human 15-PGDH (Homo sapiens, UniProt P15428).
T1 construct: purchased R&D System 5660-DH
T1 sequence (P15428 1-266): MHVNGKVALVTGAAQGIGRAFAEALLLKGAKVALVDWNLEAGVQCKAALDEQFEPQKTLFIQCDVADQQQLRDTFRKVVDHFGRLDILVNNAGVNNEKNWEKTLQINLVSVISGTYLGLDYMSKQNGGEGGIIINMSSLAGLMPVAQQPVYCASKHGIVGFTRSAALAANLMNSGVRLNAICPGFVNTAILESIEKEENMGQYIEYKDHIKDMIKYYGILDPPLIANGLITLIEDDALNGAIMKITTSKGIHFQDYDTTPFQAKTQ
Description: Evaluation of 15-PGDH inhibitory activity (fluorescence enzyme assay, NAD+/PGE2). Type of test: biochemical. Conditions: human 15-PGDH enzyme, fluorescence Vmax. The protocol:
15-PGDH inhibition activity of Example compounds was measured as follows. 6.7 ng of human 15-PGDH (R&D System# 5660-DH) enzyme (10 µL) was added to a black 96 well plate, 60 µL of buffer (50 mM Tris-HCl, pH 7.5, 0.01% Tween 20) was added, and 10 µL of 200 µM β-Nicotinamide adenine dinucleotide sodium salt (Sigma, Cat# N0632-5G) was added. 10 µL of (10x) compound solution in DMSO was added and reacted for 10 minutes at room temperature.

Broadly, the IC50 is the concentration that inhibits the measured activity by half. A low value points to greater potency. As for `O=C(c1cnn2c(-c3cnc4ccccc4c3)cccc12)N1CCCCC1` [Example 130, piperidin-1-yl(7-(quinolin-3-yl)pyrazolo[1,5-a]pyridin-3-yl)methanone], in the test with A549 cells, the fold induction at 1 µM was > 1.5. Further, the IC50 against human 15-PGDH was ≤ 100 nM.
In the same order, the values of `O=C(c1cnn2c(-c3ccccc3)cccc12)N1CC2CCC1CC2` [Example 228, (2-azabicyclo[2.2.2]octan-2-yl)(7-phenylpyrazolo[1,5-a]pyridin-3-yl)methanone] are < 1.5 and ≤ 100 nM.
Take `O=C(c1cnn2c(-c3ccc(-c4noc(=O)[nH]4)nc3)cccc12)N1CCCCC1` [Example 117, 3-(5-(3-(piperidine-1-carbonyl)pyrazolo[1,5-a]pyridin-7-yl)pyridin-2-yl)-1,2,4-oxadiazol-5(4H)-one]: the fold induction at 1 µM in the test with A549 cells is > 1.5. The IC50 on human 15-PGDH is ≤ 100 nM.
With `O=C(c1cnn2c(-c3ccc(N4CCOCC4)nc3)cccc12)N1CCCCC1` [Example 108, (7-(6-morpholinopyridin-3-yl)pyrazolo[1,5-a]pyridin-3-yl)(piperidin-1-yl)methanone], the fold induction at 1 µM in the test with A549 cells was > 1.5. In addition, the IC50 against human 15-PGDH was ≤ 100 nM.
Consider `O=C(c1cncc(-c2cccc3c(C(=O)N4CCCCC4)cnn23)c1)N1CC(O)C1` [Example 42, (3-hydroxyazetidin-1-yl)(5-(3-(piperidine-1-carbonyl)pyrazolo[1,5-a]pyridin-7-yl)pyridin-3-yl)methanone], for which the fold induction at 1 µM in the test with A549 cells was > 1.5. The IC50 at human 15-PGDH is ≤ 100 nM.
Take `O=C(c1cnn2c(-c3cc(Cl)nc(Cl)c3)cccc12)N1CCCCC1` [Example 282, (7-(2,6-dichloropyridin-4-yl)pyrazolo[1,5-a]pyridin-3-yl)(piperidin-1-yl)methanone]: the fold induction at 1 µM in the test on A549 cells is < 1.5. Further, the IC50 against human 15-PGDH is ≤ 100 nM.
For `O=C(c1cnn2c(-c3ccccc3)cccc12)N1CC2CCC1C2` (stereo not shown) [Example 227, (2-azabicyclo[2.2.1]heptan-2-yl)(7-phenylpyrazolo[1,5-a]pyridin-3-yl)methanone], the fold induction at 1 µM with A549 cells is > 1.5. Moreover, the IC50 on human 15-PGDH was ≤ 100 nM.
In the same order, the values of `O=C(c1cnn2c(-c3ccc(-c4nnn[nH]4)cc3)cccc12)N1CCCCC1` [Example 114, (7-(4-(1H-tetrazol-5-yl)phenyl)pyrazolo[1,5-a]pyridin-3-yl)(piperidin-1-yl)methanone] are > 1.5 and ≤ 100 nM.
As for `O=C(c1ncc(-c2cccc3c(C(=O)N4CCCCC4)cnn23)cc1F)N1CCC1` [Example 248, [7-[6-(azetidine-1-carbonyl)-5-fluoro-3-pyridyl]pyrazolo[1,5-a]pyridin-3-yl]-(1-piperidyl)methanone], the fold induction at 1 µM with A549 cells is > 1.5. Further, at human 15-PGDH, the IC50 was ≤ 100 nM.
`CC(C)N1CCc2ccc(-c3cccc4c(C(=O)N5CCCCC5)cnn34)cc2C1=O` [Example 133, 2-isopropyl-7-(3-(piperidine-1-carbonyl)pyrazolo[1,5-a]pyridin-7-yl)-3,4-dihydroisoquinolin-1(2H)-one]: the fold induction at 1 µM in the test with A549 cells was > 1.5. The IC50 against human 15-PGDH is ≤ 100 nM.
For the molecule `CNC(=O)c1ccc(-c2cccc3c(C(=O)N4CCCCC4)cnn23)cc1` [Example 58, N-methyl-4-(3-(piperidine-1-carbonyl)pyrazolo[1,5-a]pyridin-7-yl)benzamide], the fold induction at 1 µM in the test with A549 cells was > 1.5. Besides, at human 15-PGDH, the IC50 was ≤ 100 nM.
In the same order, the values of `O=C(Nc1cncc(-c2cccc3c(C(=O)N4CCCCC4)cnn23)c1)c1cncnc1` [Example 334, N-(5-(3-(piperidine-1-carbonyl)pyrazolo[1,5-a]pyridin-7-yl)pyridin-3-yl)pyrimidine-5-carboxamide] are > 1.5 and ≤ 100 nM.
With `O=C(c1cnn2c(-c3cnc(-c4n[nH]c(=O)o4)c(F)c3)cccc12)N1CCCCC1` [Example 373, 5-[3-fluoro-5-[3-(piperidine-1-carbonyl)pyrazolo[1,5-a]pyridin-7-yl]-2-pyridyl]-3H-1,3,4-oxadiazol-2-one], the fold induction at 1 µM in the test on A549 cells is > 1.5. Moreover, the IC50 on human 15-PGDH is ≤ 100 nM.
With `CCC1CCCN(C(=O)c2cnn3c(-c4ccc(F)nc4)cccc23)C1` (stereo not shown) [Example 337, (3-ethylpiperidin-1-yl)(7-(6-fluoropyridin-3-yl)pyrazolo[1,5-a]pyridin-3-yl)methanone], the fold induction at 1 µM with A549 cells is > 1.5. Also, on human 15-PGDH, the IC50 was ≤ 100 nM.
As for `Cc1nnc(-c2ccc(-c3cccc4c(C(=O)N5CCCCC5)cnn34)cn2)o1` [Example 364, [7-[6-(5-methyl-1,3,4-oxadiazol-2-yl)-3-pyridyl]pyrazolo[1,5-a]pyridin-3-yl]-(1-piperidyl)methanone], the fold induction at 1 µM in the test on A549 cells is > 1.5. Also, the 50% inhibitory concentration (IC50) on human 15-PGDH is ≤ 100 nM.
For `CNC(=O)c1ncc(-c2cccc3c(C(=O)N4CCCCC4)cnn23)cc1F` [Example 250, 3-fluoro-N-methyl-5-[3-(piperidine-1-carbonyl)pyrazolo[1,5-a]pyridin-7-yl]pyridine-2-carboxamide], the fold induction at 1 µM with A549 cells was > 1.5. The IC50 against human 15-PGDH is ≤ 100 nM.
`O=C(c1cnn2c(-c3ccc([N+](=O)[O-])nc3)cccc12)N1CCCCC1` [Example 16, (7-(6-nitropyridin-3-yl)pyrazolo[1,5-a]pyridin-3-yl)(piperidin-1-yl)methanone]: the fold induction at 1 µM with A549 cells was > 1.5. Moreover, the IC50 on human 15-PGDH is ≤ 100 nM.
Take `Cc1nc(-c2cncc(-c3cccc4c(C(=O)N5CCCCC5)cnn34)c2)no1` [Example 319, (7-(5-(5-methyl-1,2,4-oxadiazol-3-yl)pyridin-3-yl)pyrazolo[1,5-a]pyridin-3-yl)(piperidin-1-yl)methanone]: the fold induction at 1 µM in the test with A549 cells is > 1.5. Besides, on human 15-PGDH, the concentration for half-maximal inhibition (IC50) was ≤ 100 nM.
As for `O=C1NCCc2cc(-c3cccc4c(C(=O)N5CCCCC5)cnn34)ccc21` [Example 136, 6-(3-(piperidine-1-carbonyl)pyrazolo[1,5-a]pyridin-7-yl)-3,4-dihydroisoquinolin-1(2H)-one], the fold induction at 1 µM in the test on A549 cells is > 1.5. At human 15-PGDH, the IC50 is ≤ 100 nM.
With `CN1CCN(C(=O)c2cncc(-c3cccc4c(C(=O)N5CCCCC5)cnn34)c2)CC1` [Example 49, (4-methylpiperazin-1-yl)(5-(3-(piperidine-1-carbonyl)pyrazolo[1,5-a]pyridin-7-yl)pyridin-3-yl)methanone], the fold induction at 1 µM with A549 cells was > 1.5. The IC50 at human 15-PGDH was ≤ 100 nM.
For the molecule `O=C(c1cnn2c(-c3ccc([N+](=O)[O-])cc3)cccc12)N1CCC(F)CC1` [Example 157, (4-fluoropiperidin-1-yl)(7-(4-nitrophenyl)pyrazolo[1,5-a]pyridin-3-yl)methanone], the fold induction at 1 µM with A549 cells is > 1.5. In addition, the IC50 against human 15-PGDH was ≤ 100 nM.
In the case of `O=C(c1cnn2c(-c3ccnc(N4CC(F)C4)c3)cccc12)N1CCCCC1` [Example 257, (7-(2-(3-fluoroazetidin-1-yl)pyridin-4-yl)pyrazolo[1,5-a]pyridin-3-yl)(piperidin-1-yl)methanone], the fold induction at 1 µM in the test with A549 cells is < 1.5. For the same molecule, the IC50 against human 15-PGDH was ≤ 100 nM.
On to `O=C1NCc2ncc(-c3cccc4c(C(=O)N5CCCCC5)cnn34)cc21` [Example 232, 3-(3-(piperidine-1-carbonyl)pyrazolo[1,5-a]pyridin-7-yl)-6,7-dihydro-5H-pyrrolo[3,4-b]pyridin-5-one], for which the fold induction at 1 µM with A549 cells is > 1.5. Besides, on human 15-PGDH, the IC50 is ≤ 100 nM.
